According to ChEMBL document CHEMBL3632591, “Discovery and structural diversity of the hepatitis C virus NS3/4A serine protease inhibitor series leading to clinical candidate IDX320” (Bioorg Med Chem Lett, 2015):

Key:
[1] = target: T1, UDP-glucuronosyltransferase 1A1 (Homo sapiens, UniProt P22309); experiment: Inhibition of human UGT1A1; type: ADME
T1 sequence (P22309 whole entry): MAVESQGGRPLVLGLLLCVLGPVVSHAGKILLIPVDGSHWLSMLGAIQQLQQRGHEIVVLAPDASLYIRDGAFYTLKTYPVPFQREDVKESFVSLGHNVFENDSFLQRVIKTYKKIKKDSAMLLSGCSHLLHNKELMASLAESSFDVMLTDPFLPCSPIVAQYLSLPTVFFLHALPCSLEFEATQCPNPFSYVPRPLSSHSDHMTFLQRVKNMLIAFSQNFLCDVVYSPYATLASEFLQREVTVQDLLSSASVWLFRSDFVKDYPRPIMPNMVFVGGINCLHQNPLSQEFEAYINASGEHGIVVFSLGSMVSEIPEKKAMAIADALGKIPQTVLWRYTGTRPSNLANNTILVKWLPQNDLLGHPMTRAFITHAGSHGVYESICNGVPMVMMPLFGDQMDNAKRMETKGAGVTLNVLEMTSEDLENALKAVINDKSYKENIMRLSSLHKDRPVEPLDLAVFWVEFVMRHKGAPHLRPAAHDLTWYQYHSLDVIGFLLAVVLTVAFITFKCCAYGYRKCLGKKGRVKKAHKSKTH

[2] = Cytotoxicity against monkey hepatocytes; type: cell-based, Macaca mulatta, Hepatocyte; details: rhesus monkey
Mus musculus [3] = experiment: Toxicity in mouse assessed as effect on central nervous system at 250 mg/kg, po administered as single dose; type: organism-based; details: in vivo
Mus musculus [4] = experiment: Toxicity in mouse assessed as effect on gastrointestinal motility at 250 mg/kg, po administered as single dose; type: organism-based; details: in vivo
[5] = Volume of distribution in Cynomolgus monkey at 2 mg/kg, iv administered as single dose; type: ADME, organism-based, Macaca fascicularis; details: in vivo
[6] = target: Voltage-gated inwardly rectifying potassium channel KCNH2 (Homo sapiens, UniProt Q12809); experiment: Inhibition of human ERG expressed in HEK293 cells; type: cell-based
Voltage-gated inwardly rectifying potassium channel KCNH2, sequence (Q12809 whole entry): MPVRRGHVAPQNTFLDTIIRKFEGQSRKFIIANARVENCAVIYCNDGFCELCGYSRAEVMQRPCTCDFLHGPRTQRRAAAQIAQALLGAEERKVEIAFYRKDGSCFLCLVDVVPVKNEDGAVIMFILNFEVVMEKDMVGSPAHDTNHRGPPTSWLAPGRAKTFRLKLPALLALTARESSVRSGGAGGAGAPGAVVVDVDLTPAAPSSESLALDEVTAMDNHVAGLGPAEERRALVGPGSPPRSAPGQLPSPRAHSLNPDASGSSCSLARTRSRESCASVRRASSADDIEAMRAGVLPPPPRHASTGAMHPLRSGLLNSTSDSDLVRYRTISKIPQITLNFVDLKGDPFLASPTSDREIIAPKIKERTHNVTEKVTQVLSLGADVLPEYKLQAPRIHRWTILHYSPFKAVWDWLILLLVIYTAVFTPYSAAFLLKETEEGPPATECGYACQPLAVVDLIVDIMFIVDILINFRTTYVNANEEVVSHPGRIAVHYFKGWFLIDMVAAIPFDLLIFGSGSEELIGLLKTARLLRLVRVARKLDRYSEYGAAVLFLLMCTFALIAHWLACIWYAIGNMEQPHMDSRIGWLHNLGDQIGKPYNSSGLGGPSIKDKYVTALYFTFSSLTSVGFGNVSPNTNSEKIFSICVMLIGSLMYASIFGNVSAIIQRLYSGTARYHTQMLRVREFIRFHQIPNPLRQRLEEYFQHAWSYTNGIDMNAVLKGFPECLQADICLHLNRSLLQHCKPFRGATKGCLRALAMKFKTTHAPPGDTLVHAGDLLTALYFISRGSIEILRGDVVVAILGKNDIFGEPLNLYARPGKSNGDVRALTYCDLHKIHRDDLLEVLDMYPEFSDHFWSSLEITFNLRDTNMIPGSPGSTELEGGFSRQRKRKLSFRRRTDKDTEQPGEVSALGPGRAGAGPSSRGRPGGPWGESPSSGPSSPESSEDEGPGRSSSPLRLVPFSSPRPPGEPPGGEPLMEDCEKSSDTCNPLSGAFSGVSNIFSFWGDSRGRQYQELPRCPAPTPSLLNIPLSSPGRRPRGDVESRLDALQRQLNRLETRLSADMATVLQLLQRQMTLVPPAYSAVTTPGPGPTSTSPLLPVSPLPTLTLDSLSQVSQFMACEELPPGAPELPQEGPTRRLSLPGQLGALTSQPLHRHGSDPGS

[7] = AUC (infinity) in Sprague-Dawley rat at 2 mg/kg, iv administered as single dose; type: ADME, organism-based; design: dose 2 mg/kg, route intravenous, time infinity; details: in vivo
[8] = Plasma concentration in CD-1 mouse at 2 mg/kg, po administered as single dose measured after 24 hrs; type: ADME, organism-based
[9] = Inhibition of HCV genotype 3a NS3/4A protease; design: species or system Hepatitis C virus subtype 3a
[10] = AUC (0 to 24 hrs) in CD-1 mouse at 2 mg/kg, po administered as single dose; type: ADME, organism-based; design: dose 2 mg/kg, time < 24 hr, route oral; details: in vivo
[11] = AUC (infinity) in Cynomolgus monkey at 2 mg/kg, po administered as single dose; type: ADME, organism-based, Macaca fascicularis; design: dose 2 mg/kg, route oral, time infinity; details: in vivo
[12] = Oral bioavailability in CD-1 mouse at 2 mg/kg administered as single dose; type: ADME, organism-based; details: in vivo
[13] = Half life in Sprague-Dawley rat at 2 mg/kg, iv administered as single dose; type: ADME, organism-based; details: in vivo
[14] = Cmax in Sprague-Dawley rat plasma at 10 mg/kg, po administered as single dose measured after 24 hrs; type: ADME, organism-based; design: dose 10 mg/kg, route oral
[15] = Clearance in Sprague-Dawley rat at 2 mg/kg, iv administered as single dose; type: ADME, organism-based; details: in vivo
[16] = Inhibition of HCV genotype 1a NS3/4A protease; design: species or system Hepatitis C virus subtype 1a
[17] = Half life in Cynomolgus monkey at 2 mg/kg, iv administered as single dose; type: ADME, organism-based, Macaca fascicularis; details: in vivo
[18] = AUC (0 to 24 hrs) in CD-1 mouse at 2 mg/kg, iv administered as single dose measured after 24 hrs; type: ADME, organism-based; design: time < 24 hr, dose 2 mg/kg, route intravenous; details: in vivo
[19] = Inhibition of HCV genotype 2a NS3/4A protease; design: species or system Hepatitis C virus subtype 2a
[20] = Clearance in Cynomolgus monkey at 2 mg/kg, iv administered as single dose; type: ADME, organism-based, Macaca fascicularis; details: in vivo
Cytochrome P450 2D6 = Cytochrome P450 2D6 (Homo sapiens, UniProt P10635); experiment: Inhibition of human CYP2D6; type: ADME
Cytochrome P450 2D6, sequence (P10635 whole entry): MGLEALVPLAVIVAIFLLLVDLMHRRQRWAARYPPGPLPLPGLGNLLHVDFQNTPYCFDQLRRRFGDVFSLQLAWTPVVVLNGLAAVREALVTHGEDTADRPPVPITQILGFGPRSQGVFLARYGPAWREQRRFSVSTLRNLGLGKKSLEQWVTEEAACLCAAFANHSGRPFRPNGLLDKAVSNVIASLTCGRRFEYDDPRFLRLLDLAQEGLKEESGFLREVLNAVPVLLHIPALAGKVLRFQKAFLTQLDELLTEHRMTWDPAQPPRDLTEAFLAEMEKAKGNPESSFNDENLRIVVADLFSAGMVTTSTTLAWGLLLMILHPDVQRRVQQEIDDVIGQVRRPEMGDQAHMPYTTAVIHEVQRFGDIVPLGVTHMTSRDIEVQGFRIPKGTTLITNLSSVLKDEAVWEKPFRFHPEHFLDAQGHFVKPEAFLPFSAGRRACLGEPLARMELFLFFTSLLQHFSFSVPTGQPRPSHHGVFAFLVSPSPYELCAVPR

[21] = Inhibition of cellular protease (unknown origin); details: Homo sapiens
[22] = Half life in CD-1 mouse at 2 mg/kg, iv administered as single dose measured after 24 hrs; type: ADME, organism-based; details: in vivo
[23] = AUCt in Sprague-Dawley rat at 2 mg/kg, iv administered as single dose; type: ADME, organism-based; details: in vivo
Rhesus monkey [24] = experiment: Toxicity in monkey assessed as effect on respiratory system at 250 mg/kg, po administered as single dose; type: organism-based, Macaca mulatta; details: in vivo
[25] = Oral bioavailability in Sprague-Dawley rat at 10 mg/kg administered as single dose; type: ADME, organism-based; details: in vivo
[26] = Cytotoxicity against rat hepatocytes; type: cell-based, Hepatocyte
[27] = Inhibition of recombinant full length HCV genotype 1b NS3/4A protease by FRET assay; design: species or system Hepatitis C virus subtype 1b
[28] = Plasma concentration in Cynomolgus monkey at 2 mg/kg, iv administered as single dose measured after 24 hrs; type: ADME, organism-based, Macaca fascicularis
Hepatitis C virus = experiment: Antiviral activity against HCV genotype 1b infected in human HuH7 cells after 3 days by luciferase assay; type: functional, organism-based, Hepacivirus hominis; details: Huh-7, 72 h
[29] = Cytotoxicity against mouse hepatocytes; type: cell-based, Hepatocyte
[30] = Cytotoxicity against human HuH7 cells by colorimetric proliferation assay; type: cell-based, Huh-7
[31] = Half life in Sprague-Dawley rat at 10 mg/kg, po administered as single dose; type: ADME, organism-based; details: in vivo
[32] = AUC (infinity) in Sprague-Dawley rat at 10 mg/kg, po administered as single dose; type: ADME, organism-based; design: dose 10 mg/kg, time infinity, route oral; details: in vivo
[33] = Clearance in CD-1 mouse at 2 mg/kg, iv administered as single dose measured after 24 hrs; type: ADME, organism-based; details: in vivo
[34] = Plasma concentration in Cynomolgus monkey at 2 mg/kg, po administered as single dose measured after 24 hrs; type: ADME, organism-based, Macaca fascicularis
[35] = Efflux ratio of permeability in human Caco2 cells; type: ADME, cell-based; details: Caco-2
[36] = Half life in Cynomolgus monkey at 2 mg/kg, po administered as single dose; type: ADME, organism-based, Macaca fascicularis; details: in vivo
[37] = AUCt in Sprague-Dawley rat at 10 mg/kg, po administered as single dose; type: ADME, organism-based; details: in vivo
[38] = Tmax in Cynomolgus monkey at 2 mg/kg, po administered as single dose; type: ADME, organism-based, Macaca fascicularis; details: in vivo
Mus musculus [39] = experiment: Toxicity in mouse assessed as effect on renal function at 250 mg/kg, po administered as single dose; type: organism-based; details: in vivo
[40] = Inhibition of HCV genotype 4a NS3/4A protease; design: species or system Hepatitis C virus subtype 4a
Rhesus monkey [41] = experiment: Toxicity in monkey assessed as effect on cardiovascular system at 250 mg/kg, po administered as single dose; type: organism-based, Macaca mulatta; details: in vivo

**Q.** For COc1ccc2c(O[C@H]3CCN4C(=O)N(C)CCCCC=C[C@@H]5C[C@@]5(C(=O)NS(=O)(=O)C5(C)CC5)NC(=O)[C@@H]4C3)cc(-c3nc(C(F)(F)F)cs3)nc2c1C, which IC50 [1] is on record?
**A.** ≥ 10000 nM

**Q.** What about the CC50 [2] of the same molecule?
**A.** > 10000 nM

**Q.** And the Activity (Mus musculus [3])?
**A.** Non-toxic

**Q.** What about the Activity (Mus musculus [4]) of the same molecule?
**A.** Non-toxic

**Q.** What about the Vd [5] of the same molecule?
**A.** 3.5 L/kg

**Q.** And the “inhibition (INH)” value [6]?
**A.** Not Active

**Q.** What about the AUC(0-inf) [7] of the same molecule?
**A.** 1770 ng·h/mL

**Q.** And the concentration at 24 h [8]?
**A.** 1.5 ng/mL

**Q.** What about the IC50 [9] of the same molecule?
**A.** 23 nM

**Q.** What about the AUC(0-t) at 24 h [10] of the same molecule?
**A.** 1410 ng·h/mL

**Q.** And the AUC(0-inf) [11]?
**A.** 8920 ng·h/mL

**Q.** And the bioavailability [12]?
**A.** 34.7%

**Q.** And the half-life [13]?
**A.** 1.5 h

**Q.** What about the Cmax [14] of the same molecule?
**A.** 934 ng/mL

**Q.** What about the clearance [15] of the same molecule?
**A.** 18.8 mL/min/kg

**Q.** And the IC50 [16]?
**A.** 0.8 nM

**Q.** What about the half-life [17] of the same molecule?
**A.** 10.3 h

**Q.** What about the AUC(0-t) at 24 h [18] of the same molecule?
**A.** 4060 ng·h/mL

**Q.** And the IC50 [19]?
**A.** 0.8 nM

**Q.** What about the clearance [20] of the same molecule?
**A.** 3.83 mL/min/kg

**Q.** And the IC50 (Cytochrome P450 2D6)?
**A.** ≥ 10000 nM

**Q.** And the IC50 [21]?
**A.** > 10000 nM

**Q.** And the half-life [22]?
**A.** 6.3 h

**Q.** And the AUC(0-t) [23]?
**A.** 1750 ng·h/mL

**Q.** What about the Activity (Rhesus monkey [24]) of the same molecule?
**A.** Non-toxic

**Q.** What about the bioavailability [25] of the same molecule?
**A.** 45%

**Q.** What about the CC50 [26] of the same molecule?
**A.** > 10000 nM

**Q.** And the IC50 [27]?
**A.** 0.5 nM

**Q.** And the concentration at 24 h [28]?
**A.** 66 ng/mL

**Q.** And the EC50 (Hepatitis C virus)?
**A.** 0.7 nM

**Q.** And the CC50 [29]?
**A.** > 10000 nM

**Q.** And the CC50 [30]?
**A.** 52800 nM

**Q.** And the half-life [31]?
**A.** 3.6 h

**Q.** And the AUC(0-inf) [32]?
**A.** 3970 ng·h/mL

**Q.** What about the clearance [33] of the same molecule?
**A.** 8 mL/min/kg

**Q.** And the concentration at 24 h [34]?
**A.** 81 ng/mL

**Q.** What about the efflux ratio [35] of the same molecule?
**A.** 2.7

**Q.** And the half-life [36]?
**A.** 7.6 h

**Q.** What about the AUC(0-t) [37] of the same molecule?
**A.** 3920 ng·h/mL

**Q.** What about the Tmax [38] of the same molecule?
**A.** 1 h

**Q.** And the Activity (Mus musculus [39])?
**A.** Non-toxic

**Q.** What about the IC50 [40] of the same molecule?
**A.** 0.8 nM

**Q.** And the Activity (Rhesus monkey [41])?
**A.** Non-toxic
